In publication PMC11272598, “RG7774 (Vicasinabin), an orally bioavailable cannabinoid receptor 2 (CB2R) agonist, decreases retinal vascular permeability, leukocyte adhesion, and ocular inflammation in animal models” (Frontiers in Pharmacology, 2024):

Experiments:
Jurkat cells = test: xCELLigence impedance assay in Jurkat cells; type: cell-based, human; details: co-treatment with RG7774
Procedure: Background impedance was determined in 96-well RTCA E-plates (Agilent Technologies, Santa Clara, CA, United States) coated with 150 μg/mL fibronectin/H2O (Sigma-Aldrich, St. Louis, MO, United States) and containing 50 μL RPMI 1640 assay medium (Fisher Scientific, Schwerte, Germany) 31870) with 10% fetal calf serum (FCS). Jurkat cells (200,000 cells per well) were seeded in 100 μL of growth medium, allowed to settle for 30 min at RT, and cultured overnight at 37°C and 5% CO2. Dose-response curves were generated by adding increasing concentrations of RG7774 to seeded Jurkat cells and performing impedance measurements (xCelligence RTCA M, Agilent Technologies, Santa Clara, CA, United States) at baseline and 1 h after treatment. Displacement experiments were performed by incubating seeded Jurkat cells with 10 μM SR144528, a CB2R-selective antagonist (Tocris Bioscience, Bristol, United Kingdom) or 10 μM RO6851228 (a CB2R-selective inverse agonist; in-house synthesis) in assay medium overnight at 37°C and 5% CO2. Cells were re-treated with 10 μM SR144528 or […] for 1 h and stimulated with 233 nM RG7774 in assay medium. […] Displacement data are presented as the percentage of the maximal normalized cell index determined after antagonist/inverse agonist treatment relative to the percentage of the normalized cell index at 109 nM RG7774 treatment.

Mouse DAGL = Mouse DAGL assay (brain); type: biochemical; details: positive control 10 µM
Procedure: (§1) Mouse brain or human HaCaT cells (CLS Cell Lines Service, GmbH, Eppelheim, Germany) were homogenized in 50 mM Tris-HCl (pH 7.4) using a glass potter, and homogenates were centrifuged at 4°C sequentially at 800 g (10 min) and 10,000 g (30 min). The final pellet (80–200 µg) was resuspended in 50 mM Tris-HCl (pH 7.4) containing 10 mM CaCl2 and incubated at 37°C for 30 min with sn-1[^14C]-stearoyl-2-arachidonoyl-glycerol (100 µM) (ARC, MO, USA). Reactions were stopped by adding chloroform/methanol (2:1, v/v), and the organic phase was dried and fractionated by thin-layer chromatography on silica gel, as previously reported. Levels of 1[^14C]-stearoyl acid radioactivity were determined by cutting the appropriate band from the gel and analyzing using a β-scintillation counter. Mouse cells were preincubated for 15 min with RG7774 (10 µM) and added to the incubation medium. Human cells were preincubated for 15 min with 8 different concentrations of RG7774 (0.1-500 µM) and added to the incubation medium. Control experiments were carried out in the presence of the selective DAGL inhibitor, D053 (10 µM).

Human DAGL = Human DAGL assay (HaCaT cells); type: biochemical; details: positive control 10 µM
Procedure: as §1

Mouse CB1R = Mouse CB1R (Mus musculus, UniProt P47746); test: Mouse cAMP assay in N18TG2 cells; type: cell-based; design: inhibition at 0.1 µM: reference not given here; details: N18TG2, read-out: Mean ± SEM % inhibition of control, Mouse CB1R (cAMP assay)
Procedure: The effect of RG7774 on the forskolin-stimulated accumulation of cAMP was determined using the LANCE ULTRAcAMP kit (PerkinElmer Life Sciences, MA, USA), according to the manufacturer’s instructions. Briefly, N18TG2 cells preincubated for 30 min with 1-methyl-3-isobutylxanthine (1 mM) were added to 0.5 µM forskolin preincubated with or without RG7774 for 15 min. Reactions were incubated for 30 min at 37°C and Time-resolved fluorescence was measured using a Victor V Multilabel counter (PerkinElmer Life Sciences). Data were transformed into cAMP concentrations using a standard curve.

Human 5-LOX = biological target: T1, Human 5-LOX (Homo sapiens, UniProt P09917); test: Human 5-LOX assay; type: biochemical; details: positive control 100 µM
T1 construct: purchased Cayman Chemical Company #60402
Procedure: (§2) The inhibitory effects of different concentrations of RG7774 (0.1-500 µM) on the activities of human recombinant 5-LOX (Cayman Chemical Company #60402), 15-LOX (Cayman Chemical Company #10011263), and human platelet-derived 12-LOX were determined using the Biovision Lipoxygenase Activity Assay Kit (#BVN-K978-100). This kit converts the LOX substrate to an intermediate that reacted with the probe, generating a fluorescent product. The effect of RG7774 (preincubated for 15 min) at 10 µM on LOXs (5-LOX: 0.5 or 1.2 µg; 12-LOX: 20 µg; 15-LOX: 0.23 or 0.3 µg) was ascertained by adding the compounds directly to the incubation medium and the fluorescent signal, recorded at excitation/emission 500/536 nm at 30 sec intervals for 30-40 min, was directly proportional to LOX activity. […] The percentage of human 5-, 12-, and 15-LOX activity (control) was estimated from the amount of oxidized probe in the reaction using a standard curve.

Human 12-LOX = biological target: T2, Human 12-LOX (Homo sapiens, UniProt P18054); test: Human 12-LOX assay; type: biochemical; details: positive control 100 µM
T2 construct: human platelet-derived 12-LOX; from tissue; host or cells: human platelets
Procedure: as §2

Human EMT = Human EMT activity (HaCaT cells); type: cell-based; details: positive control 40 µM
Procedure: HaCaT cells were seeded (350,000–400,000 cell/well) in triplicate in 12-well plates and incubated for 15 min in PBS at 37°C with [^3H]-N-arachidonoylethanolamine ([^3H]-AEA) (400 nM) (ARC, MO, USA), as previously reported. Experiments were repeated at 4°C in order to subtract passive diffusion from EMT-mediated uptake. RG7774 (10 µM) was preincubated with labeled HaCaT cells for 15 min before adding directly to the incubation medium (PBS). The selective EMT inhibitor, OMDM-1 (40 µM), was used as positive control.

Human FAAH = biological target: T3, Human FAAH (Homo sapiens, UniProt O00519); test: Human FAAH assay; type: biochemical; details: positive control 100 nM; read-out: Mean ± SEM % inhibition of control, Human FAAH
T3 construct: purchased Cayman Chemical Company
Procedure: (§3) Mouse brain was homogenized in 50 mM Tris-HCl (pH 7.4) using a glass potter, centrifuged at 1000 g for 10 min, and the pellet was discarded. The supernatant (50 µg) was incubated with [^14C]-AEA (10 µM) (ARC, MO, USA) at 37°C for 15 min (Tris-HCl, pH 9.0) and reactions were stopped with a 2:1 (v/v) mixture of chloroform/methanol. [^14C]-ethanolamine release in the aqueous phase was measured as previously reported. Mouse supernatants (50 µg) were preincubated with RG7774 (10 µM) for 15 min and added directly to the incubation medium. Purified human FAAH (1.7 µg; Cayman Chemical Company, MI, USA) was incubated with [^14C]-AEA (10 µM) (ARC, MO, USA) at 37°C for 15 min (pH 9.0), as previously described. […] for 15 min with 8 different concentrations of RG7774 (0.1-500 µM) and added directly to the incubation medium (250 µL). Control experiments was carried out in the presence of the FAAH inhibitor, URB-597 (100 nM).

Mouse FAAH = biological target: T4, Mouse FAAH (Mus musculus, UniProt O08914); test: Mouse FAAH assay (brain); type: biochemical; details: positive control 100 nM; read-out: Mean ± SEM % inhibition of control, Mouse FAAH
T4 construct: Mouse brain was homogenized in 50 mM Tris-HCl (pH 7.4); from tissue; host or cells: mouse brain, 1000 g supernatant
Procedure: as §3

Human MAGL = biological target: T5, Human MAGL (Homo sapiens, UniProt Q99685); test: Human MAGL assay (U937 cell extracts); type: biochemical; details: positive control 100 nM
T5 construct: Mouse brain or human U937 cell extracts (ATCC, Manassas, VI, USA); host or cells: U937 cells, 100,000 g supernatant
Procedure: The final supernatant was incubated with [^3H]-2-OG (10 µM) (ARC, MO, USA) at 37°C for 30 min as previously described, and reactions were stopped with a 2:1 (v/v) mixture of chloroform/methanol. [^3H]-glycerol release in the aqueous phase was measured by scintillation counting. […] Human supernatant (100 µg) was preincubated for 15 min at RT with 8 different concentrations of RG7774 (0.1-500 µM) in the incubation medium.

T3 sequence (O00519 whole entry): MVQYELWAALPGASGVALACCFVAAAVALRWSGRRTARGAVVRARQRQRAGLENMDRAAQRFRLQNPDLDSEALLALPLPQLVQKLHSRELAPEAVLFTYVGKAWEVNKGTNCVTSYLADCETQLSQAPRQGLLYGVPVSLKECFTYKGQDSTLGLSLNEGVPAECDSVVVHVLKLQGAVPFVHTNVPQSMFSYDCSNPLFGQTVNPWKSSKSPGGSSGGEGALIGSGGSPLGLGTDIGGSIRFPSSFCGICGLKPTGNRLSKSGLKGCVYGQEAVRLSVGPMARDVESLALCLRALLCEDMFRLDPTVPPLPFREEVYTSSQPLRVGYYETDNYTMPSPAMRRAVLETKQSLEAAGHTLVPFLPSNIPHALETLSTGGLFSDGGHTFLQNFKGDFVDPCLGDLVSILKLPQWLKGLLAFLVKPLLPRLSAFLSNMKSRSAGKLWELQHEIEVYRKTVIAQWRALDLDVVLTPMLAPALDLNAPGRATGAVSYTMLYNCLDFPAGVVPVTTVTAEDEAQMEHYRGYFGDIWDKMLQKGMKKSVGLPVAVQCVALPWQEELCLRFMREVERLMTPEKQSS
T4 sequence (O08914 whole entry): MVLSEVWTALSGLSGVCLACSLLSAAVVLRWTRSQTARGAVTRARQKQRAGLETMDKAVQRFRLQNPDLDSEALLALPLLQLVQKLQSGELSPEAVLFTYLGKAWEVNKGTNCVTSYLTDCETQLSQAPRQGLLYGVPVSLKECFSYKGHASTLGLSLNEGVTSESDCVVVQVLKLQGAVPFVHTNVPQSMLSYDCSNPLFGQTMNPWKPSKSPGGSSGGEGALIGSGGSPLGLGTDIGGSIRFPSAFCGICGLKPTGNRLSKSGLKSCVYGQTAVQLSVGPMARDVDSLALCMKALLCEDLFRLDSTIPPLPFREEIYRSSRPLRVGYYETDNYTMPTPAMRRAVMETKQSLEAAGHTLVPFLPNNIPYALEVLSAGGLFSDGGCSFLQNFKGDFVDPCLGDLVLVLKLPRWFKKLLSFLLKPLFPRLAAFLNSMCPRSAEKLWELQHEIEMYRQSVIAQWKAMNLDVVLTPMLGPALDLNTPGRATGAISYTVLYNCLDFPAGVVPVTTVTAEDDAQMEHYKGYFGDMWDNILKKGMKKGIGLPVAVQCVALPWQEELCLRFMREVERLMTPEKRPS
T2 sequence (P18054 whole entry): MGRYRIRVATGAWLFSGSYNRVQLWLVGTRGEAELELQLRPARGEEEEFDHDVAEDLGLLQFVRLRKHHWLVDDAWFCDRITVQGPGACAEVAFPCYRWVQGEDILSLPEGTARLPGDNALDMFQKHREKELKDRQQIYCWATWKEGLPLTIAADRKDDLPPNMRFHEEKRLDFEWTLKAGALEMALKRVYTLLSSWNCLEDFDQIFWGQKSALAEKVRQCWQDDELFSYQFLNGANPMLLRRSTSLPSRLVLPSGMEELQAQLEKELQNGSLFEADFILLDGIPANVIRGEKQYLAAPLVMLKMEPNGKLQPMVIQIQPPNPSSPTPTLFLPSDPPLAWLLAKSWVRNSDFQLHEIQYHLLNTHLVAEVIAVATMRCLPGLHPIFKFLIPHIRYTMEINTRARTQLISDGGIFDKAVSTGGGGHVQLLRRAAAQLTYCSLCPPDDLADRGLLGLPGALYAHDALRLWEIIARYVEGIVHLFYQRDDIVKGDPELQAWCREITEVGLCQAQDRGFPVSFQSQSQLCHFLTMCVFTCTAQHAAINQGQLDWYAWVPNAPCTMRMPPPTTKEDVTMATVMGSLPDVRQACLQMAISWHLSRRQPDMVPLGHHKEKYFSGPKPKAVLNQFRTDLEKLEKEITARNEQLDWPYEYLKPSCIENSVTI
T5 sequence (Q99685 whole entry): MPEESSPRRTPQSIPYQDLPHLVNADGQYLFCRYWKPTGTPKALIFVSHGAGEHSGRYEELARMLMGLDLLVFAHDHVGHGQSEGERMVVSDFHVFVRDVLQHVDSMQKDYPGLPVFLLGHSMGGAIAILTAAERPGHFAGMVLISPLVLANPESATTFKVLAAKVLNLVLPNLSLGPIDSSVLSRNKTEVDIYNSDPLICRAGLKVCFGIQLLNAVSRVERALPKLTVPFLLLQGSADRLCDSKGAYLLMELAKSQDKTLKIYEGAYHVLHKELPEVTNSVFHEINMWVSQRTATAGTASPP
T1 sequence (P09917 whole entry): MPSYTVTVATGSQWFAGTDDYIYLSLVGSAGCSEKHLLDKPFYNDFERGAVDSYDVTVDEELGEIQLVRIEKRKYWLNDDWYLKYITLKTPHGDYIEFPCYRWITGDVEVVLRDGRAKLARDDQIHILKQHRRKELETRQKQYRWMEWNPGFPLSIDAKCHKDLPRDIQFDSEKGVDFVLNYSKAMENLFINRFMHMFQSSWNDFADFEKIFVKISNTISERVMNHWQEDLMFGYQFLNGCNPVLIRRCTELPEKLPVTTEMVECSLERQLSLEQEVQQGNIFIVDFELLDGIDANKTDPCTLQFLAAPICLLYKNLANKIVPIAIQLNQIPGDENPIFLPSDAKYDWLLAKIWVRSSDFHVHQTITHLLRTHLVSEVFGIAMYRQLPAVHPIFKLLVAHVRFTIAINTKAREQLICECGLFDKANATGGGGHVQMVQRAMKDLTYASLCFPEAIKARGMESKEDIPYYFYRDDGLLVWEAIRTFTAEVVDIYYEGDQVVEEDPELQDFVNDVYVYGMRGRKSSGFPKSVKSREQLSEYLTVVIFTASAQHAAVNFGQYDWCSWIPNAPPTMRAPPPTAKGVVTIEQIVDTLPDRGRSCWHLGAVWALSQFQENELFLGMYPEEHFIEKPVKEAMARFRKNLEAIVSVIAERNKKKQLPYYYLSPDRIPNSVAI
Mouse CB1R, sequence (P47746 whole entry): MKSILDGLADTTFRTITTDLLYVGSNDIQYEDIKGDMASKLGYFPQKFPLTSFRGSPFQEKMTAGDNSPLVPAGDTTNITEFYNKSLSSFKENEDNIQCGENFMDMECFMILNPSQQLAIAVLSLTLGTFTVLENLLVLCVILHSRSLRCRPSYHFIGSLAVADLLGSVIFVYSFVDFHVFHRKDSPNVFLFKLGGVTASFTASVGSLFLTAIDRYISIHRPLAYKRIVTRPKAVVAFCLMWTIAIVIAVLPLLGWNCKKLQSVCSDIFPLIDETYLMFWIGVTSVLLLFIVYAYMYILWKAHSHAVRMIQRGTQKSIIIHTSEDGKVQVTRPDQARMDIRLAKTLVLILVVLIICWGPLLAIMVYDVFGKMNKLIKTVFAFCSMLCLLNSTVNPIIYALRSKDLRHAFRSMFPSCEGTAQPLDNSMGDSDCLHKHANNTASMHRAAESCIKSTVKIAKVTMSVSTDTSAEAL

For SR144528 [reference compound], the “inhibition of RG7774-induced increase in maximal normalized cell index” value (Jurkat cells) was “fully inhibited”.
For `CC(C)(C)OC(=O)N1CCN(C(=O)n2cc(-c3ccc(OC(F)(F)F)cc3)nn2)C(c2ccccc2)C1` (stereo not shown) [DO53, reference compound], the “Mean ± SEM % inhibition of control, Mouse DAGL” value (Mouse DAGL) was 60.4 ± 4.3% and the “Mean ± SEM % inhibition of control, Human DAGL” value (Human DAGL) was 103.1 ± 13.2%.
Compound `CCCCCCC(C)(C)c1ccc([C@@H]2C[C@H](O)CC[C@H]2CCCO)c(O)c1` [CP-55940, reference compound] has an inhibition at 0.1 µM (Mouse CB1R) of 91.5 ± 2.6%.
With `CC(Cc1ccc(O)c(O)c1)C(C)Cc1ccc(O)c(O)c1` (stereo not shown) [NDGA, reference compound] the “Mean ± SEM % inhibition of control, Human 5-LOX” value (Human 5-LOX) was 126.6 ± 2.4% and the “Mean ± SEM % inhibition of control, Human 12-LOX” value (Human 12-LOX) was 84.6 ± 0.7%.
In the case of `CCCCCCCC/C=C\CCCCCCCC(=O)N[C@H](CO)Cc1ccc(O)cc1` [OMDM-1, reference compound], the “Mean ± SEM % inhibition of control, Human EMT” value (Human EMT) is reported as 95.5 ± 0.4%.
`NC(=O)c1cccc(-c2cccc(OC(=O)NC3CCCCC3)c2)c1` [URB-597, reference compound] was tested, and the inhibition at 0.1 µM (Human FAAH) was 92.8 ± 6.1% and the inhibition at 0.1 µM (Mouse FAAH) was 83.2 ± 4.6%.
In the case of `O=C(Oc1ccc([N+](=O)[O-])cc1)N1CCC(C(O)(c2ccc3c(c2)OCO3)c2ccc3c(c2)OCO3)CC1` [JZL-184, reference compound], the “Mean ± SEM % inhibition of control, Human MAGL” value (Human MAGL) is reported as 84.3 ± 3.4%.
